In ChEMBL document CHEMBL1135009, “2-(Dimethylaminomethyl)-tetrahydroisoxazolopyridobenzazepine derivatives. Synthesis of a new 5-HT(2C) antagonist with potential anxiolytic properties” (Bioorg Med Chem Lett, 2002):

What was measured:
Mus musculus [1] = assay: Activity in mCPP challenge test, exploration measurements after sc administration; assay type: functional
Mus musculus [2] = assay: Activity in mCPP challenge test, disinhibition measurement after sc administration; assay type: functional
[3] = biological target: T1, 5-hydroxytryptamine receptor 2C (Homo sapiens, UniProt P28335); assay: Binding affinity against 5-HT2C receptor
T1 sequence (P28335 whole entry): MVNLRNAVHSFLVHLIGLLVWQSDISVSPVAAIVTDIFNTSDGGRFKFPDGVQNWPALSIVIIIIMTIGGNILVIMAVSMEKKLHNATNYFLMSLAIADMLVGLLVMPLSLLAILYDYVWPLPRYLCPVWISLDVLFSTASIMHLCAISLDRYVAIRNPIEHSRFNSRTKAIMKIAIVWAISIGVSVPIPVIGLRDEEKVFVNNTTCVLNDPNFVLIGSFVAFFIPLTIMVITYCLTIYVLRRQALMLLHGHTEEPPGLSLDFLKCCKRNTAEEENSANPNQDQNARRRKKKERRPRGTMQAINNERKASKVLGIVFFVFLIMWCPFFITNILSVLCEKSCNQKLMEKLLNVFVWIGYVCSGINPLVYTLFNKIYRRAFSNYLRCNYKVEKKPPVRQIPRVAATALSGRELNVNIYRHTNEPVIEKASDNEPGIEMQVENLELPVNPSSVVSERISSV

Histamine H1 receptor = Histamine H1 receptor (Homo sapiens, UniProt P35367); assay: Binding affinity against Histamine H1 receptor
Sequence of Histamine H1 receptor (P35367 whole entry): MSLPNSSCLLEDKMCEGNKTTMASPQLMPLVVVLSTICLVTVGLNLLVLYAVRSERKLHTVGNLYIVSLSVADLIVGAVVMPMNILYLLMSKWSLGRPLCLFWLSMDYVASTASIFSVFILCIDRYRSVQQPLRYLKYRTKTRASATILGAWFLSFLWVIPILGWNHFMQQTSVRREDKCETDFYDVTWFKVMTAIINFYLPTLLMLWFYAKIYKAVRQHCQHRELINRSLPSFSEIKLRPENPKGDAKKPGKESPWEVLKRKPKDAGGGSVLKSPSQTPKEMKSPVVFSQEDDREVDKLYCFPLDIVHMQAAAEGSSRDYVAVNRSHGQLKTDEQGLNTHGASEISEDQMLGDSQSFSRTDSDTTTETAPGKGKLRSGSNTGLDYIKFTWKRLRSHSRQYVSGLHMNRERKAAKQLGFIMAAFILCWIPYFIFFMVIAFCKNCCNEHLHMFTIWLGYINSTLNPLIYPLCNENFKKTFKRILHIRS

D(4) dopamine receptor = biological target: T2, D(4) dopamine receptor (Homo sapiens, UniProt P21917); assay: Binding affinity against Dopamine receptor D4
T2 sequence (P21917 whole entry): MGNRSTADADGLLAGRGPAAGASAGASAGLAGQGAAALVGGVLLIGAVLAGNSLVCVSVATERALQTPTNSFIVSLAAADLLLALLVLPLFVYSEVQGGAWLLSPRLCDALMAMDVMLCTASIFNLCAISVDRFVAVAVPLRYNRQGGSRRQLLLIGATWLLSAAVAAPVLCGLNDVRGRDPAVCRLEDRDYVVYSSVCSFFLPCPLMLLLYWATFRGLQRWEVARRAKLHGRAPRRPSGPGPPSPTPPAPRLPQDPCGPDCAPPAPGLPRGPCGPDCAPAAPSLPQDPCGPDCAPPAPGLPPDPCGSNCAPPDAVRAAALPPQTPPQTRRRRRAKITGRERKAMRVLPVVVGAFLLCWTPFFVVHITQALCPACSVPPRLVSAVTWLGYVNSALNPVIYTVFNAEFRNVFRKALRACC

[4] = biological target: T3, Alpha-1A adrenergic receptor (Homo sapiens, UniProt P35348); assay: Binding affinity against Alpha-1A adrenergic receptor
T3 sequence (P35348 whole entry): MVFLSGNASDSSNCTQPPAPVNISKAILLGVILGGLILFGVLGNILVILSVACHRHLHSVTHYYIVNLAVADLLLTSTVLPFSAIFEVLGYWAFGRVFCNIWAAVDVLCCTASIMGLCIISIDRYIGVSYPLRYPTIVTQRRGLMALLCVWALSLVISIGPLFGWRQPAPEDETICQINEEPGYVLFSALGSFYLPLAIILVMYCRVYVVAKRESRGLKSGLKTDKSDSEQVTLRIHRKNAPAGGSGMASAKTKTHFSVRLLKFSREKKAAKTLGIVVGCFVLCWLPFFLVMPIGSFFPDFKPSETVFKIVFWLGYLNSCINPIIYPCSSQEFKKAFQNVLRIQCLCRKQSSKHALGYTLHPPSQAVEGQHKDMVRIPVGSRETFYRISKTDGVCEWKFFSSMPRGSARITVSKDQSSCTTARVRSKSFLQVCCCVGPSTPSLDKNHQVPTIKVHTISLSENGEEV

D(3) dopamine receptor = D(3) dopamine receptor (Homo sapiens, UniProt P35462); assay: Binding affinity against Dopamine receptor D3
Sequence of D(3) dopamine receptor (P35462 whole entry): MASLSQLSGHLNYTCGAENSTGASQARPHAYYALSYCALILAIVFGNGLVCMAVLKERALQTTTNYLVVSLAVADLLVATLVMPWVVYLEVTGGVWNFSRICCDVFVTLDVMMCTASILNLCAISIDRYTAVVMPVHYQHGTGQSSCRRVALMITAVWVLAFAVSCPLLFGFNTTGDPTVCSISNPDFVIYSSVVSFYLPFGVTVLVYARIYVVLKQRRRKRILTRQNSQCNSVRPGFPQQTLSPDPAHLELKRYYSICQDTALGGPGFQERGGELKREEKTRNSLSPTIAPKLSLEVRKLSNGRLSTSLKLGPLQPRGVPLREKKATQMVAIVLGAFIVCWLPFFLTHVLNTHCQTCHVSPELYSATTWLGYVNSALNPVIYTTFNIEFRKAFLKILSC

[5] = biological target: T4, Alpha-2A adrenergic receptor (Homo sapiens, UniProt P08913); assay: Binding affinity against Alpha-2A adrenergic receptor
T4 sequence (P08913 whole entry): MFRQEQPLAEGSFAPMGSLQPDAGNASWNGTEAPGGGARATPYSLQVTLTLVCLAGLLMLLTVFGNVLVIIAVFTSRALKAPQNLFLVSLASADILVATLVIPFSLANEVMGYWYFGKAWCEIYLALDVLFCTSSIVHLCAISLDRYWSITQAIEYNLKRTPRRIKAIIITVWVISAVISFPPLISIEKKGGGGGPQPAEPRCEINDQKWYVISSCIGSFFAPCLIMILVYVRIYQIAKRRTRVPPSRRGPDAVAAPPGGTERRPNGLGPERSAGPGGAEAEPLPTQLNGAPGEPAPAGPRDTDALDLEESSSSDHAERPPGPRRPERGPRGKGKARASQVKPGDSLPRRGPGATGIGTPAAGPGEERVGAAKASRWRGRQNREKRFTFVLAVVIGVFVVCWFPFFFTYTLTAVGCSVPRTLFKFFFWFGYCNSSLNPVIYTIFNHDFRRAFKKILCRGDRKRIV

D(2) dopamine receptor = D(2) dopamine receptor (Homo sapiens, UniProt P14416); assay: Binding affinity against Dopamine receptor D2L
Sequence of D(2) dopamine receptor (P14416 whole entry): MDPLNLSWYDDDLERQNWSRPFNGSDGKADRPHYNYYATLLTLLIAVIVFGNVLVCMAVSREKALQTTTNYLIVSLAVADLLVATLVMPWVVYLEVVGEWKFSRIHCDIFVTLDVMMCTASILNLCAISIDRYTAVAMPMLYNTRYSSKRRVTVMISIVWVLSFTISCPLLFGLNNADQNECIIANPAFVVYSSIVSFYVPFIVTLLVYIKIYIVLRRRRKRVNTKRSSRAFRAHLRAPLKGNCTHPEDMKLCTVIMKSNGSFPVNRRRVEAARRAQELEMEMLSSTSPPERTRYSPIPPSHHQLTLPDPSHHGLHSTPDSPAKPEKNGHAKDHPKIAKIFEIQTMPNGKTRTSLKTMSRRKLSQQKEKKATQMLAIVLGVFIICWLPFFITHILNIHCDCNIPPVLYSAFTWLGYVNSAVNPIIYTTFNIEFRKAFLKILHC

[6] = biological target: T5, 5-hydroxytryptamine receptor 2A (Homo sapiens, UniProt P28223); assay: Binding affinity against 5-hydroxytryptamine 2A receptor
T5 sequence (P28223 whole entry): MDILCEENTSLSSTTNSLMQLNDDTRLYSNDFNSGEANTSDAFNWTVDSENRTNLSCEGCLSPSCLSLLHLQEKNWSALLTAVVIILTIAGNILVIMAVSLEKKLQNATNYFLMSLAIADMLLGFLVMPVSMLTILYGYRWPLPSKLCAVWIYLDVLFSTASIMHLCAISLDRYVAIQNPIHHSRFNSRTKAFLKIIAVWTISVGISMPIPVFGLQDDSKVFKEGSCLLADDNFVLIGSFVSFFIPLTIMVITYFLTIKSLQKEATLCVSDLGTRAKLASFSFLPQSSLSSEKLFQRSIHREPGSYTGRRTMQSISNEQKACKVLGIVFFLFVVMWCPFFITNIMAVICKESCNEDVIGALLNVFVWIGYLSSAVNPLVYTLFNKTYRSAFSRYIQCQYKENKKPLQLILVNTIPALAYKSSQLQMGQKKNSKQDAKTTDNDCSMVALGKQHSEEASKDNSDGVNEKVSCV

[7] = biological target: T6, 5-hydroxytryptamine receptor 1A (Homo sapiens, UniProt P08908); assay: Binding affinity against 5-HT1A receptor
T6 sequence (P08908 whole entry): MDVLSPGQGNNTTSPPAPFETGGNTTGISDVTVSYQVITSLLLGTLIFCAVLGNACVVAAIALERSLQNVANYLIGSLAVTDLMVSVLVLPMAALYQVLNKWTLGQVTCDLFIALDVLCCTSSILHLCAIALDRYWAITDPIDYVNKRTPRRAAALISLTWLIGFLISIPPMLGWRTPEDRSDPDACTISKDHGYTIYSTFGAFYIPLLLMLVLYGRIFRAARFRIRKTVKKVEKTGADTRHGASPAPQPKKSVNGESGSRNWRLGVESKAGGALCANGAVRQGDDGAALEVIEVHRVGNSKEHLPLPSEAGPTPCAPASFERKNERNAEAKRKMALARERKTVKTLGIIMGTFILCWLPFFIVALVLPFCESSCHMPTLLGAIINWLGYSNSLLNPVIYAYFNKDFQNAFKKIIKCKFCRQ

[8] = biological target: T5, 5-hydroxytryptamine receptor 2A; assay: Binding affinity against 5-HT2A receptor
[9] = biological target: T7, 5-hydroxytryptamine receptor 1D (Homo sapiens, UniProt P28221); assay: Binding affinity against 5-HT1D receptor
Target sequence in this assay (P28221 whole entry): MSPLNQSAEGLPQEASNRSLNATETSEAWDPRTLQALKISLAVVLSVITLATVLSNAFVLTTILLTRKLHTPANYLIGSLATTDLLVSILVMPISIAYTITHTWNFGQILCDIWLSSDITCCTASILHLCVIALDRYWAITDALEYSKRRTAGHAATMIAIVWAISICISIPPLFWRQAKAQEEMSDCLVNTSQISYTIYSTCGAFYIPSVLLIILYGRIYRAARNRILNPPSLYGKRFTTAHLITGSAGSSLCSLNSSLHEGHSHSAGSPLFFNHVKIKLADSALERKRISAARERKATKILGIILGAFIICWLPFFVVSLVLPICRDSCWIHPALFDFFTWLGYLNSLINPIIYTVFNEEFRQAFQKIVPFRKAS

[10] = biological target: T7, 5-hydroxytryptamine receptor 1D; assay: Binding affinity against 5-hydroxytryptamine 1D receptor
Target sequence in this assay (P28221 whole entry, looked up): as the sequence (P28221 whole entry) above

| Compound | ED50 (Mus musculus [1]) [mg/kg] | ED50 (Mus musculus [2]) [mg/kg] | IC50 [3] [nM] | IC50 (Histamine H1 receptor) [nM] | IC50 (D(4) dopamine receptor) [nM] | IC50 [4] [nM] | IC50 (D(3) dopamine receptor) [nM] | IC50 [5] [nM] | IC50 (D(2) dopamine receptor) [nM] | IC50 [6] [nM] | IC50 [7] [nM] | IC50 [8] [nM] | IC50 [9] [nM] | IC50 [10] [nM] |
| --- | --- | --- | --- | --- | --- | --- | --- | --- | --- | --- | --- | --- | --- | --- |
| CN(C)CC1CC2c3ccccc3Cc3ccc(Cl)cc3N2O1 (stereo not given) | > 2.5 | 0.16 | 1.05 | 2.34 | 2.63 | 14.5 |  |  |  |  |  |  |  |  |
| CN(C)CC1CC2c3ccccc3Cc3ccncc3N2O1 (stereo not given) | 2.5 | 0.16 | 12.6 | > 1000 | 251 | 398 | 1660 | > 1000 | 1910 | 389 |  |  |  |  |
| CN(C)CC1CC2c3cccnc3Cc3ccccc3N2O1 (stereo not given) | < 2.5 | < 2.5 |  | 16.6 | > 1000 | > 1000 | > 1000 | > 1000 | > 1000 |  | > 1000 | > 1000 | > 1000 | 912 |
| CN(C)CC1CC2c3ccccc3Cc3ccccc3N2O1 (stereo not given) | > 2.5 | 0.01 |  |  |  |  |  |  |  |  |  |  |  |  |
